Data from the NIST ThermoML archive (doi:10.1016/j.jct.2012.06.030).

Test: molar heat capacity at constant pressure; xn = mol fraction of the nth substance listed
Settings: 101 kPa, Liquid, Small sample (50 mg) DSC, x2 = 0

O [water] + CCCCCC[n+]1ccc2ccccc2c1.N#C[S-]
Settings | molar heat capacity at constant pressure [J/K/mol]
288.15 K | 75.9
293.15 K | 75.8
298.15 K | 75.7
303.15 K | 75.7
308.15 K | 75.6
313.15 K | 75.5
318.15 K | 75.5
323.15 K | 75.4
328.15 K | 75.4
333.15 K | 75.3
338.15 K | 75.3
343.15 K | 75.3
